US20040024293A1, “Methods and systems for analyzing complex biological systems” (priority 2001, published 2004)
Entries after “also recorded” stand apart in the source; their conditions may differ.

Legend:
[1] = test system: Arabidopsis thaliana plants; assay: Phenotypic analysis of herbicide-treated Arabidopsis plants (SOA1); format: in vivo; settings: for leafCurling (Dev.) / leafTwisting (Dev.) / leafWidth (Dev.) / matureLeafAnthocyanins (Dev.) / matureLeafChlorosis (Dev.) / matureLeafNecrosis (Dev.) / newLeafAnthocyanins (Dev.) / newLeafChlorosis (Dev.) / newLeafNecrosis (Dev.) / pointedLeaves (Dev.) / tMic (Dev.): SOA1, numeric value standardized to mock treated; for Symptom Class: three-week-old Arabidopsis plants treated with herbicide, phenotypes of FIG. 12
Arabidopsis thaliana [2] = assay: Gene expression profiling (22,000 gene array) of sprayed Arabidopsis (MOA1); format: in vivo; settings: for No. of Lethal Genes Altered / gene expression perturbations compared to the other treatments: 1 hr
[3] = test system: Saccharomyces cerevisiae wild type strain BY4743; assay: Combined gene expression and metabolite data mapped to KEGG reactions and pathways (AF1); format: cell-based; settings: yeast
Excerpt: In AF1, two different technologies were utilized: gene expression analysis (for examination of mRNA expression) and metabolite analysis. […] As noted previously, existing metabolic databases may be helpful in practicing the methods and systems of the present invention, but many databases include limitations that make their use in data analysis and pathway mapping less than straightforward. […] This caveat to KEGG makes it difficult to pinpoint the correct pathway when attempting to link a gene to a specific pathway. […] The pathway score indicates how meaningful the mapping is, or how likely it is to be correctly indicative of the pathway involved in the perturbation under examination. The method provides a pathway score based on perturbation levels of genes. and/or compounds and the information content of each gene and/or compound in the pathway, i.e., a pathway score indicates the extent to which other pathways are mapped to a gene/compound. For example, imagine that two genes are perturbed in a particular experiment. One gene maps to only one pathway, giving a high degree of probability that the perturbed pathway is the one identified in the mapping. The second gene maps to three pathways. In the later example, there is only one-third the probability that the pathway identified in the mapping is the one perturbed. The present invention provides a method for calculating the pathway scores, so that more weight is given to a score of a gene or compound that maps to only one pathway than to a score of a gene or compound that maps to multiple pathways. […] Where n=the total number of genes in the pathway; ipath—count=the number of pathways containing a gene; and j=the number of genes in the pathway that are perturbed. Another factor to be considered when weighting a pathway score is the degree of perturbation. Degree of perturbation can be calculated, for example, based on a number of standard deviations from a norm, and included in an equation such as the one shown above, so that not only the number of pathways is taken into account, but also accounts for the amount of gene transcript or compound present as compared to a control. Compounds were also linked to pathways using the KEGG database. KEGG links 676 compounds measured in AF1 to a total of 92 pathways. Of the 676 compounds under consideration, 77 were detected in the AF1 samples. […] The multiple mapping feature of KEGG makes it difficult to pinpoint the correct pathway when trying to link a compound to a specific pathway. […] A pathway score calculation is applied to the compounds to account for both information content (number of pathways a compound maps to) and perturbation level. […]

Arabidopsis thaliana [4] = assay: Biochemical (metabolite) profiling by LC-MS and GC-MS of sprayed Arabidopsis (MOA1); format: in vivo
Magnaporthe grisea = format: cell-based
Arabidopsis plants = settings: nitrate addition to N-starved Arabidopsis plants; cited from earlier work
[5] = concentrations insufficient to inhibit growth

SMILES	leafCurling (Dev.) [1]	leafTwisting (Dev.) [1]	leafWidth (Dev.) [1]	matureLeafAnthocyanins (Dev.) [1]	matureLeafChlorosis (Dev.) [1]	matureLeafNecrosis (Dev.) [1]	newLeafAnthocyanins (Dev.) [1]	newLeafChlorosis (Dev.) [1]	newLeafNecrosis (Dev.) [1]	pointedLeaves (Dev.) [1]	tMic (Dev.) [1]	Symptom Class [1]	No. of Lethal Genes Altered (Arabidopsis thaliana [2])	further results
O=C(O)COc1ccc(Cl)cc1Cl [2,4-D]	1	2	−1	1	2	0	0	1	0	0	2	5		
COC(=O)NS(=O)(=O)c1ccc(N)cc1 [Asulam]													5	gene expression perturbations compared to the other treatments (Arabidopsis thaliana [2]): fewest gene expression perturbations
COc1nc(C)nc(NC(=O)NS(=O)(=O)c2ccccc2Cl)n1 [Chlorsulfuron]													8	
c1cc[n+]2c(c1)-c1cccc[n+]1CC2 [Diquat]	2	0	−2	0	1	4	0	1	4	1	2	7		
CN(C)C(=O)Nc1ccc(Cl)c(Cl)c1 [Diuron]	1	0	−2	0	2	4	0	2	4	1	1	7		
OC(Cn1cncn1)(Cn1cncn1)c1ccc(F)cc1F [Fluconazole]														# Reactions (Number Of Pathways Having at Least One Enzyme and One Compound Perturbed) [3]: 15
CP(=O)(O)CCC(N)C(=O)O (stereo not shown) [Glufosinate]	2	1	−2	0	3	0	0	3	0	1	1	3	10	stress-related metabolites observed (Arabidopsis thaliana [4]; in vivo): Only a few, if any; Regulated Genes Following Herbicide Treatment: Down (Arabidopsis thaliana [2]; in vivo): 54; nitrogen sources M. grisea is able to utilize in the presence of the compound (Magnaporthe grisea): only able to utilize glutamine and glutamate
O=C(O)CNCP(=O)(O)O [Glyphosate]	0	0	0	3	1	3	1	2	0	1	2	4		tyrosine (metabolite downstream from the SOA) relative to the control (Arabidopsis thaliana [4]; in vivo): decreased; growth results of Unknown 4 and glyphosate compared (Magnaporthe grisea): nearly identical; Growth inhibition of M. grisea on inclusion of aromatic amino acids to the media (Magnaporthe grisea; 1.0 mg/ml): remediated; Growth of M. grisea with ammonium or glutamine as nitrogen source (Magnaporthe grisea; Tier 4): Little growth defect
CC(C)C1(C)N=C(c2ncccc2C(=O)O)NC1=O (stereo not shown) [Imazapyr]														stress-related metabolites observed (Arabidopsis thaliana [4]; MOA1, 20 min and 1 hr): Only a few, if any
CS(=O)(=O)c1cc(C(F)(F)F)ccc1C(=O)c1cnoc1C1CC1 [Isoxaflutole]													15	tyrosine and phenylalanine relative to the control (Arabidopsis thaliana [4]; Arabidopsis, after one hour): up-regulated; also recorded: began to accumulate; Alpha-tocopherol levels relative to the control (Arabidopsis thaliana [4]; Arabidopsis, early time points): not significantly changed; M. grisea growth in minimal media (Magnaporthe grisea; [5]): unaffected; M. grisea growth in minimal plus tyrosine media (Magnaporthe grisea; [5]): inhibited
CC(=O)N1CCN(c2ccc(OCC3COC(Cn4ccnc4)(c4ccc(Cl)cc4Cl)O3)cc2)CC1 (stereo not shown) [Ketoconazole]														# Reactions (Number Of Pathways Having at Least One Enzyme and One Compound Perturbed) [3]: 24
O=C(O)c1ccccc1C(=O)Nc1cccc2ccccc12 [Naptalam]													3	gene expression perturbations compared to the other treatments (Arabidopsis thaliana [2]): fewest gene expression perturbations; Regulated Genes Following Herbicide Treatment: Down (Arabidopsis thaliana [2]; in vivo): 47; Regulated Genes Following Herbicide Treatment: Up (Arabidopsis thaliana [2]; in vivo): 50
O=[N+]([O-])O [Nitrate]														Nitrate Regulation of Glutamate synthetase gene (Arabidopsis plants): ↑; Nitrate Regulation of Glutamine synthetase (2) genes (Arabidopsis plants): ↑; Nitrate Regulation of MADs Box (2) genes (Arabidopsis plants): ↓; Nitrate Regulation of MYB transcription factor gene (Arabidopsis plants): ↑; Nitrate Regulation of Malate Dehydrogenase gene (Arabidopsis plants): ↑; Nitrate Regulation of Nitrate transporter gene (Arabidopsis plants): ↑; Nitrate Regulation of Phosphate transporter gene (Arabidopsis plants): ↑; Nitrate Regulation of Transaldolase gene (Arabidopsis plants): ↑; Nitrate Regulation of Transketolase gene (Arabidopsis plants): ↑
CNc1cnn(-c2cccc(C(F)(F)F)c2)c(=O)c1Cl [Norfluazon, Norflurazon]														stress-related metabolites observed (Arabidopsis thaliana [4]; MOA1, 20 min and 1 hr): Only a few, if any
C[n+]1ccc(-c2cc[n+](C)cc2)cc1 [Paraquat]												7		
